Source: patent EP0562849A2, “Steroid derivatives” (priority 1992, dated 1993)
Read-outs that look alike come from different tables or passages of the source.

Tested on: Syrian Golden hamsters
Assay: In vivo serum cholesterol lowering in hamsters fed a cholesterol test diet
Conditions: for inhibition in vivo at 100 mg/kg/day: Mesocricetus auratus, feed or water, 168 h, read-out: Percent Lowering of Cholesterol from Control Value Mean; for Serum Cholesterol Mean: 0.2% (w/w) in Cholesterol Test Diet for one week, equivalent to 100 mg/kg/day, groups of six, control mean 337
Description: Syrian Golden hamsters were fed a cholesterol test diet made of 10% coconut oil and 0.12% cholesterol (by weight) in Purina 5001 Rodent Chow to induce hypercholesteriolemia.
After two weeks on the cholesterol test diet the hamsters were bled from the orbital sinium under light CO2 anesthesia. Serum was prepared and analyzed for cholesterol using a commercial test kit (Cholesterol High Performance, Single Vial™, product of Boehringer Mannheim Corp., Indianapolis, IN, USA). The hamsters were separated into groups of six animals, such that each group had approximately the same mean serum cholesterol levels. Selected compounds of the invention were incorporated into the Cholesterol Test Diet at 0.2% (w/w) and fed to the hamsters for one week. A control group of hamsters continued on the Cholesterol Test Diet during the same one-week period. The dose of test compounds of the invention was equivalent to 100 mg/kg/day based on the weight of the hamsters and their diet consumption. Upon completion of the test period, the animals were bled and serum cholesterol determined as above.
Mean serum cholesterol values from the test hamsters were compared to values from the control group and tested for significance at the Z.05 level using Dunnett's test.

[1] = hamsters, 0.2% (w/w) in diet for one week (100 mg/kg/day), negative values = serum cholesterol increased relative to control

Molecule | inhibition in vivo at 100 mg/kg/day [1] [%] | Serum Cholesterol Mean (hamsters) [mg/dL] | inhibition in vivo at 100 mg/kg/day [%] | Percent Lowering of Cholesterol from Control Value Mean [1] [%]
CC=CC[C@@H]1[C@@H](O)CC[C@@]2(C)[C@H]1CC[C@@H]1[C@@H]2CC[C@]2(C)[C@@H]([C@H](C)CCCC(C)C)CC[C@@H]12 [(12), (3β,4α,5α)-4-(2-butenyl)cholestan-3-ol] | 27.4 | 245 | – | –
C=CC[C@H]1C2CC[C@H]3[C@@H]4CC[C@H]([C@@](C)(O)CCCC(C)C)[C@@]4(C)CC[C@@H]3[C@@]2(C)CC[C@H]1O (stereo partly drawn) [(13), (3a,4a)-4-(2-propenyl)cholestane-3,20-diol] | 25.1 | 253 | – | –
CC(C)CCC[C@@H](C)[C@H]1CC[C@H]2[C@@H]3CC[C@H]4[C@H](CC=C(Br)Br)[C@H](O)CC[C@]4(C)[C@H]3CC[C@]12C [(14), (3a,4a,5a)-4-(3,3-dibromo-2-propenyl)cholestan-3-ol] | 23.2 | 259 | – | –
CC(C)CCC[C@@H](C)[C@H]1CC[C@H]2[C@@H]3CC[C@H]4C[C@H](O)CC[C@]4(C)[C@H]3CC[C@]12C [(24), 5a-cholestan-3a-ol, reference compound] | – | 422 | -25 | –
CC(C)CCC[C@@H](C)[C@H]1CC[C@H]2[C@@H]3CCC4[C@H](Cc5ccccc5)C(=O)CC[C@]4(C)[C@H]3CC[C@]12C (stereo partly drawn) [(5), 4a-benzylcholestan-3-one] | – | 202 | – | 40.2
C=CC[C@@H]1[C@@H](O)CC[C@@]2(C)[C@H]1CC[C@@H]1[C@@H]2CC[C@]2(C)[C@@H]([C@H](C)CCCC(C)C)CC[C@@H]12 [Example 80, (3β,4α,5α,20β)-4-(2-propenyl)cholestan-3-ol] | 20.2 | 269 | – | –
C=CC[C@@H]1[C@H](O)CC[C@@]2(C)[C@H]1CC[C@@H]1[C@@H]2CC[C@]2(C)[C@@H]([C@H](C)CCCC(C)C)CC[C@@H]12 [(4), (3α,4α,5α,20β)-4-(2-propenyl)cholestan-3-ol] | – | 198 | – | 41.4
CC(C)CCC[C@@H](C)[C@H]1CC[C@H]2[C@@H]3CCC4[C@H](Cc5ccccc5)C(=O)CC[C@]4(C)[C@H]3CC[C@]12C (stereo partly drawn) [(19), 4a-benzylcholestan-3-one] | – | 312 | – | 7.5
4a-4-(2-propenyl)cholestan-3-one [Example 72] | – | 267 | – | 20.8
C=CC[C@@H]1[C@H](OC(=O)CCCCCCCCCCCCCCCCC)CC[C@@]2(C)[C@H]1CC[C@@H]1[C@@H]2CC[C@]2(C)[C@@H]([C@H](C)CCCC(C)C)CC[C@@H]12 [Example 99, (3a,4a,5a)-4-(2-propenyl)cholestan-3-ol octadecanoate (ester)] | – | 328 | – | 2.7
(3β,4α,5α,20β)-4-(2-propenyl)cholestan-3-amine [(22)] | – | 345 | – | -2.4
C=CCC1C(=O)CC[C@@]2(C)C1CC[C@H]1[C@@H]3CC[C@H]([C@H](C)CCCC(C)C)[C@@]3(C)CC[C@@H]12 (stereo partly drawn) [(21), 4-(2-propenyl)cholestan-3-one] | 2 | 330 | – | –
